From patent publication US12030840B2 (GENFIT, priority 2018, dated 2024)
Substitutions are numbered along the chain they refer to. ≈ marks a conversion by molar mass, not a printed value. Structures can show the parent of a compound that is named as a salt. Where two headings read alike, the source gives them in different places.

Experiments:
physchem = settings: for solubility at 24 h: 20 °C, thermodynamic from solid
Method: The solubility of the compound is determined in buffered aqueous solution at pH 1, pH 3, pH 5 and pH 7.4.
The saturation is obtained by adding an excess of active ingredient to a given volume of test medium. The suspension is stirred by orbital stirring over 24 hours at […], away from light.
After 30 min, 1 hour, 2 hours and/or 24 hours, the supernatant is isolated by centrifugation and diluted in a solvent mixture allowing its injection into the chromatographic system. The concentration (expressed as parent concentration) in solution for each medium is determined by HPLC (external standardization).
After 24 hours an XRPD analysis is performed on the insoluble fraction isolated by centrifugation.
• pH 1 HCl/KCl buffer: a mixture of 0.373 g of KCl and 13.4 ml of HCl in a 100 mL volumetric flask was completed to 100 mL with de-ionized water. • pH 3 citrate buffer: 1.051 g of citric acid monohydrate was dissolved in 250 ml of de-ionized water. The pH was adjusted to 3 with NaOH. • pH 5 citrate/phosphate buffer: Solution I was prepared: 2.8392 g of Na2HPO4 in 100 mL volumetric flask was completed to 100 mL with de-ionized water. Solution II was prepared: 2.1004 g of citric acid monohydrate in a 100 mL volumetric flask was completed to 100 mL with de-ionized water. To 48.5 mL of Solution II were added 51.5 mL of Solution I. • pH 7.4 phosphate buffer: a mixture of 38 g of Na2HPO4, 12H2O and 3.8 g of Na2HPO4, 2H2O in a 1 L volumetric flask was completed to 1 L with de-ionized water. Salt Screening Macroscopic Observation

PPARalpha [1] = biological target: T1, PPARalpha (Mus musculus, UniProt P23204); experiment: Gal4-PPAR transactivation assay in COS-7 cells, murine PPARalpha; format: cell-based; settings: Murin
T1 sequence (P23204 200-468 limits assumed): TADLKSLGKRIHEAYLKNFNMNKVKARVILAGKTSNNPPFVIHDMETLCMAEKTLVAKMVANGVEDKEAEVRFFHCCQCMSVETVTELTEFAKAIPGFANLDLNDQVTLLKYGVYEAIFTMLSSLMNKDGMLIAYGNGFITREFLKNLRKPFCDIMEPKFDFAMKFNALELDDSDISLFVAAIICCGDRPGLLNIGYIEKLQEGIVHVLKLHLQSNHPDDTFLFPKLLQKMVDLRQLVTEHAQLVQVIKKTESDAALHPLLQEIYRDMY
Method: (§1) Monkey kidney COS-7 cells were maintained in standard culture conditions (Dulbecco's modified Eagle's minimal medium: DMEM) supplemented with 10% fetal calf serum, 1% sodium pyruvate, 1% essential amino acids, 1% L-glutamine and 1% antibiotics at 37° C. in a humidified atmosphere of 5% CO2 and 95% air. The medium was changed every 2 days. All tested compounds were dissolved in DMSO. Cells were transfected using 4 μl JetPEI™ (Polyplus transfection)/μg of DNA. Briefly, 150 ng of DNA per well was transfected in a 96 well culture plate of adherent COS-7 cells (respecting the 10:1 ratio between the Gal4(RE)_TkpGL3 plasmid and the plasmid coding the nuclear receptor of interest (pGal4-hPPARalpha, pGal4-hPPARgamma, pGal4-hPPARdelta, pGal4-mPPARalpha, pGal4-mPPARgamma and pGal4-mPPARdelta) or of the pGal4phi plasmid (negative control). Cells were enzymatically detached and seeded in 96 well plates at the density of 40,000 cells per well and then incubated for 24 hours at 37° C. The activation was performed in DMEM 0% fetal calf serum, supplemented with the tested compounds (compound of interest or reference molecules) or vehicle (DMSO 0.1%). The luciferase activity was measured with the Steady-Glo Luciferase Assay System (Promega, Madison, WI). All transactivation experiments were performed at least 2 times. Activation curves were realized using Prism® (from GraphPad) software. Prism® was also used to fit the standard curves and then determine the specific EC50 values, maximum effect versus reference molecules and Hill slope. The Emax effect of each new ligand is represented as the ratio of the maximal induction (plateau) obtained with the new ligand and the induction obtained with the corresponding reference compound. The reference compounds for PPARalpha, PPARgamma and PPARdelta were fenofibrate (100 μM), rosiglitazone (10 μM) and GW501516 (1 μM), respectively.

PPARalpha [2] = biological target: T2, PPARalpha (Homo sapiens, UniProt Q07869); experiment: Gal4-PPAR transactivation assay in COS-7 cells, human PPARalpha; format: cell-based
T2 sequence (Q07869 200-468 limits assumed): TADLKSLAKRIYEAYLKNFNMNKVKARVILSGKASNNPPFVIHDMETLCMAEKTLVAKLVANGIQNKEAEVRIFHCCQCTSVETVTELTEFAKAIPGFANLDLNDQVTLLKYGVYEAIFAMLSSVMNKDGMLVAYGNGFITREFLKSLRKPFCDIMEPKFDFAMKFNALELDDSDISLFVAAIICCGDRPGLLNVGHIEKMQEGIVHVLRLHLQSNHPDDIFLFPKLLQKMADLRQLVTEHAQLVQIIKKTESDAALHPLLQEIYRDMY
Method: as §1

[3] = Photostability protocol (UV exposure, ICH Q1B, SUNTEST, HPLC); format: physicochemical; settings: after 17 h exposure to UV light; for Elafibranor degradation (%): HPLC-UV at 350 nm
Method: In order to make the difference between the degradation only due to temperature within the SUNTEST apparatus chamber and the degradation only due to UV exposure, a second elafibranor salt sample protected from light is also placed in the SUNTEST chamber. All samples are then analyzed by HPLC.
The crystallized samples were stressed by exposure to UV light according to the photostatbility protocol described above.

PPARgamma [4] = biological target: T3, PPARgamma (Mus musculus, UniProt P37238); experiment: Gal4-PPAR transactivation assay in COS-7 cells, murine PPARgamma; format: cell-based; settings: Murin
T3 sequence (P37238 238-505 limits assumed): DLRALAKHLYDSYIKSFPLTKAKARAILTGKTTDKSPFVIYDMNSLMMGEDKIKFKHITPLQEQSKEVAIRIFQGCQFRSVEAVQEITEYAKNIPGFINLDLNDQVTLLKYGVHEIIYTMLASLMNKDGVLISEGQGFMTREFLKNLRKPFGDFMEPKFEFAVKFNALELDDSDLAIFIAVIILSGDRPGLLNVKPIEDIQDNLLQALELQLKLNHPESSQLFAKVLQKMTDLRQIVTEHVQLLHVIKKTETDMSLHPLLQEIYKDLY
Method: as §1

PPARgamma [5] = biological target: T4, PPARgamma (Homo sapiens, UniProt P37231); experiment: Gal4-PPAR transactivation assay in COS-7 cells, human PPARgamma; format: cell-based
T4 sequence (P37231 238-505 limits assumed): T3 sequence (P37238 238-505 limits assumed) with N93S, I98V, N146S, V226L, H245Q
Method: as §1

[6] = listed as Elafibranor L-Arginine salt

Work on CSc1ccc(C(=O)/C=C/c2cc(C)c(OC(C)(C)C(=O)O)c(C)c2)cc1 [Elafibranor, reference compound] yielded a solubility at 24 h (physchem; pH 1, simulated gastric fluid) of less than 1 µg/mL, a solubility at 24 h (physchem; pH 3, aqueous buffer) of less than 1 µg/mL and a solubility at 24 h (physchem; pH 5, aqueous buffer) of 1 µg/mL (≈ 2.6 µM). For the same compound, the solubility at 24 h (physchem; pH 7.4, aqueous buffer) was 130 µg/mL (≈ 338 µM), the “Final pH of the saturated solution” value (physchem; pH 1 HCl/KCl buffer) was 0.7 and the “Final pH of the saturated solution” value (physchem; pH 3 citrate buffer) was 2.9. For the same compound, the “Final pH of the saturated solution” value (physchem; pH 5 citrate/phosphate buffer) was 4.9, the “Final pH of the saturated solution” value (physchem; pH 7.4 phosphate buffer) was 7.3 and the EC50 (PPARalpha [1]) was 95 nM. For the same compound, the EC50 (PPARalpha [2]) was 57 nM, the “Elafibranor degradation (%)” value ([3]; listed as Free acid) was 27% and the “Elafibranor degradation (%)” value ([3]; listed as elafibranor free acid) was 27%. It also gave an EC50 (PPARgamma [4]) of 580 nM and an EC50 (PPARgamma [5]) of 430 nM.

With CSc1ccc(C(=O)/C=C/c2cc(C)c(OC(C)(C)C(=O)O)c(C)c2)cc1.N=C(N)NCCC[C@H](N)C(=O)O [Form IV, Elafibranor L-arginate salt] the EC50 (PPARalpha [1]; [6]) was 93 nM, the EC50 (PPARalpha [2]; [6]) was 54 nM and the “Photostability compared to elafibranor free acid” value [3] was “significant improvement of the photostability”. The “Elafibranor degradation (%)” value [3] was 4%, the EC50 (PPARgamma [4]; [6]) was 580 nM and the EC50 (PPARgamma [5]; [6]) was 320 nM.

In the case of CSc1ccc(C(=O)/C=C/c2cc(C)c(OC(C)(C)C(=O)O)c(C)c2)cc1.NC(CO)(CO)CO [Form I, Elafibranor tromethamine salt], the “Final pH of the saturated solution” value (physchem; pH 1 HCl/KCl buffer) is reported as 0.9, the “Soluble fraction (mg/mL) at 20° C. at 24 hours” value (“Soluble fraction (mg/mL)” for short) (physchem; pH 1 HCl/KCl buffer) is reported as less than 0.001 mg/mL and the “Final pH of the saturated solution” value (physchem; pH 3 citrate buffer) is reported as 3.1. For the same compound, the “Soluble fraction (mg/mL)” value (physchem; pH 3 citrate buffer) was less than 0.001 mg/mL, the “Final pH of the saturated solution” value (physchem; pH 5 citrate/phosphate buffer) was 5.1 and the “Soluble fraction (mg/mL)” value (physchem; pH 5 citrate/phosphate buffer) was 0.003 mg/mL. For the same compound, the “Solubility compared to elafibranor” value (physchem; pH 7.4) was “more soluble than elafibranor”, the “Final pH of the saturated solution” value (physchem; pH 7.4 phosphate buffer) was 7.3 and the “Soluble fraction (mg/mL)” value (physchem; pH 7.4 phosphate buffer) was 0.19 mg/mL. The EC50 (PPARalpha [1]) was 103 nM, the EC50 (PPARalpha [2]) was 68 nM and the “Photostability compared to elafibranor free acid” value [3] was “significant improvement of the photostability”. For the same compound, the “Elafibranor degradation (%)” value [3] was 10%, the EC50 (PPARgamma [4]) was 730 nM and the EC50 (PPARgamma [5]) was 490 nM.

In the case of CSc1ccc(C(=O)/C=C/c2cc(C)c(OC(C)(C)C(=O)O)c(C)c2)cc1 [Form III, Elafibranor sodium salt], the EC50 (PPARalpha [1]) is reported as 133 nM, the EC50 (PPARalpha [2]) is reported as 77 nM and the “Elafibranor degradation (%)” value ([3]; sodium salt) is reported as 89%. For the same compound, the EC50 (PPARgamma [4]) was 770 nM and the EC50 (PPARgamma [5]) was 560 nM.

With CSc1ccc(C(=O)/C=C/c2cc(C)c(OC(C)(C)C(=O)O)c(C)c2)cc1 [Form II, Elafibranor potassium salt] the EC50 (PPARalpha [1]) was 96 nM, the EC50 (PPARalpha [2]) was 64 nM and the “Photostability compared to elafibranor free acid” value [3] was “significant improvement of the photostability”. The “Elafibranor degradation (%)” value ([3]; listed as Potassium salt (Form II), potassium salt) was 13%, the “Elafibranor degradation (%)” value ([3]; potassium salt) was 13% and the EC50 (PPARgamma [4]) was 590 nM. It also gave an EC50 (PPARgamma [5]) of 430 nM.
